This series is described as follows: logP determination by HPLC on reverse-phase column (C 18), EEC directive 79/831 Annex V.A8. The format is physicochemical. Here is the method:
In the acidic range, the determination is carried out at pH 2.3 using the mobile phases 0.1% aqueous phosphoric acid and acetonitrile; linear gradient from 10% acetonitrile to 90% acetonitrile.
In the neutral range, the determination is carried out at pH 7.5 using the mobile phases 0.01 molar aqueous phosphate buffer solution and acetonitrile; linear gradient from 10% acetonitrile to 90% acetonitrile.

Setting [1] is: reverse-phase HPLC column (C 18), pH 2.3, acidic range, pH 2.3; 0.1% aqueous phosphoric acid/acetonitrile gradient; 43° C.; values marked a).
[2] abbreviates: reverse-phase HPLC column (C 18), pH 7.5, neutral range, pH 7.5; 0.01 molar aqueous phosphate buffer/acetonitrile gradient; 43° C.; values marked b).

Regarding `Cc1cc(OC(F)(F)F)ccc1-c1ccc(C2CCC(c3c(F)cccc3F)=N2)cc1` (centres unmarked) [Example 111], the chromatographic logP – broadly, lipophilicity estimated from chromatographic retention – under setting [1] stood at 4.55.
On to `O=C1CCC(c2ccc(-c3ccc(O)cc3)cc2)N1` (centres unmarked) [Example V-18], for which, under setting [1], the chromatographic logP worked out at 1.47.
Still for that read-out and setting: in the case of `COc1ccc(C2CCC(=O)N2)cc1F` (centres unmarked) [Example V-9] it was 1.29.
`Fc1ccc(C2CCC(c3cccc(Cl)c3)=N2)cc1` (centres unmarked) [Example 33]: the chromatographic logP runs as follows: under setting [1], 1.98; under setting [2], 4.05.
For the compound `Cc1ccc(C2CCC(=O)N2)cc1Cl` (centres unmarked) [Example V-12], the chromatographic logP under setting [1] was found to be 1.92.
On to `Cc1ccccc1C1=NC(c2ccccc2)CC1` (centres unmarked) [Example 94], for which the chromatographic logP runs as follows: under setting [1], 1.29; under setting [2], 3.7.
The compound `CC(C)(C)OC(=O)N1C(=O)CCC1c1ccc(F)c(F)c1` (centres unmarked) [III-12] registered a chromatographic logP under setting [1] of 2.67.
`CC(C)(C)OC(=O)N1C(=O)CCC1c1ccc(OC(F)(F)F)cc1` (centres unmarked) [III-1, tert-butyl 2-oxo-5-[4-(trifluoromethoxy)phenyl]-1-pyrrolidinecarboxylate] displayed a chromatographic logP under setting [1] of 3.28.
Turning to `CSc1ccc(C2CCC(c3ccccc3Br)=N2)cc1` (centres unmarked) [Example 58], the chromatographic logP reads like this: under setting [1], 2.5; under setting [2], 4.03.
Compound `O=C1CCC(c2ccc(Cl)cc2)N1` (centres unmarked) [Example V-11] yielded a chromatographic logP (acidic range, pH 2.3; 0.1% aqueous phosphoric acid/acetonitrile gradient; 43° C.; values marked a)) of 1.61.
The compound `CC(C)(C)OC(=O)N1C(=O)CCC1c1ccc(-c2ccc(OCc3ccc(OC(F)(F)F)cc3)cc2)cc1` (centres unmarked) [III-25] returned a chromatographic logP under setting [1] of 5.03.
Consider `Clc1ccc(C2=NC(c3ccccc3)CC2)cc1Cl` (centres unmarked) [Example 44], for which the chromatographic logP by setting is: under setting [1], 2.68; under setting [2], 4.59.
The compound `FC(F)(F)Oc1ccc(C2CCC(c3ccccc3Br)=N2)cc1` (centres unmarked) [Example 1, 5-(2-bromophenyl)-2-[4-(trifluoro-methoxy)phenyl]-3,4-dihydro-2H-pyrrole] showed a chromatographic logP under setting [1] of 3.61.
For the compound `Clc1ccccc1C1=NC(c2ccc(Br)cc2)CC1` (centres unmarked) [Example 89], the chromatographic logP runs as follows: under setting [1], 2.76; under setting [2], 4.36.
With `Fc1cccc(F)c1C1=NC(c2ccc(SCc3ccc(Cl)cc3)cc2)CC1` (centres unmarked) [Example 59], under setting [1], the chromatographic logP came to 2.88.
As to `FC(F)(F)Oc1ccc(-c2ccc(C3CCC(c4ccccc4Br)=N3)cc2)cc1` (centres unmarked) [Example 102], the chromatographic logP by setting is: under setting [1], 4.52; under setting [2], 5.56.
With `COc1ccc(C2CCC(c3ccccc3Cl)=N2)cc1` (centres unmarked) [Example 86], the chromatographic logP was 1.66 under setting [1] and 3.47 under setting [2].
In the case of `CC(=O)c1ccc(C2CCC(c3ccccc3Cl)=N2)cc1` (centres unmarked) [Example 75], the chromatographic logP runs as follows: under setting [1], 1.88; under setting [2], 3.06.
In the same order, the values of `COc1ccc(C2CCC(c3ccccc3F)=N2)cc1` (centres unmarked) [Example 87] are 1.21 and 3.32.
For the compound `Cc1ccccc1C1=NC(c2ccc(C(C)(C)C)cc2)CC1` (centres unmarked) [Example 27], under setting [1], the chromatographic logP is 2.31.
As to `Fc1ccc(C2CCC(c3ccccc3F)=N2)cc1F` (centres unmarked) [Example 63], the chromatographic logP by setting is: under setting [1], 1.74; under setting [2], 3.74.
In the case of `O=C1CCC(c2ccc(SC(F)(F)F)cc2)N1` (centres unmarked) [Example V-25], the chromatographic logP under setting [1] is 1.59.
Regarding `O=C1CCC(c2ccc(OC(F)(F)F)cc2)N1` (centres unmarked) [Example V-1, 5-[4-(trifluoromethoxy)phenyl]-2-pyrrolidinone], the chromatographic logP under setting [1] turned out to be 2.
The compound `Cc1cc(Cl)ccc1C1CCC(c2ccccc2F)=N1` (centres unmarked) [Example 39] came in with a chromatographic logP under setting [1] of 2.09 and a chromatographic logP under setting [2] of 4.51.
With `CC(C)c1ccc(C2CCC(=O)N2C(=O)OC(C)(C)C)cc1` (centres unmarked) [III-5], under setting [1], the chromatographic logP is 3.65.
In the case of `CC(C)(C)OC(=O)N1C(=O)CCC1c1ccccc1` (centres unmarked) [III-2], the chromatographic logP under setting [1] was determined as 2.52.
`Cc1ccccc1C1=NC(c2ccc(Cl)cc2C)CC1` (centres unmarked) [Example 30]: the chromatographic logP is, setting by setting: under setting [1], 2.06; under setting [2], 4.79.
Consider `COc1ccc(C2CCC(=O)N2C(=O)OC(C)(C)C)cc1F` (centres unmarked) [III-7], for which the chromatographic logP under setting [1] came to 2.43.
Consider `FC(F)(F)Oc1ccc(-c2ccc(C3CCC(c4ccc(Br)cc4)=N3)cc2)cc1` (centres unmarked) [Example 101], for which the chromatographic logP stood at 3.51 under setting [1] and 5.95 under setting [2].
For `Cc1cc(-c2ccc(C3CCC(c4c(F)cccc4F)=N3)cc2)ccc1OC(F)(F)F` (centres unmarked) [Example 112], the chromatographic logP under setting [1] turned out to be 4.57.
Regarding `Cc1ccc(C2CCC(c3ccccc3Br)=N2)cc1` (centres unmarked) [Example 81], the chromatographic logP runs as follows: under setting [1], 2.17; under setting [2], 4.07.
`CC(C)(C)c1ccc(C2CCC(=O)N2)cc1` (centres unmarked) [Example V-4] displayed a chromatographic logP under setting [1] of 1.9.
Compound `O=C1CCC(c2ccccc2)N1` (centres unmarked) [Example V-15] registered a chromatographic logP under setting [1] of 1.21.
`CCOc1cc(C(C)(C)C)ccc1C1CCC(=O)N1C(=O)OC(C)(C)C` (centres unmarked) [III-28] came in with a chromatographic logP under setting [1] of 4.4.
Take `CC(C)(C)OC(=O)N1C(=O)CCC1c1ccc(-c2ccc(Br)cc2)cc1` (centres unmarked) [III-27]: the chromatographic logP under setting [1] is 4.26.
`Cc1cc(Cl)ccc1C1CCC(c2ccccc2Cl)=N1` (centres unmarked) [Example 28]: the chromatographic logP runs as follows: under setting [1], 3.18; under setting [2], 4.62.
Take `CCOC(=O)Oc1ccc(-c2ccc(C3CCC(=O)N3)cc2)cc1` (centres unmarked) [Example V-20]: under setting [1], the chromatographic logP turned out to be 2.39.
Compound `Fc1ccc(C2CCC(c3ccccc3Br)=N2)cc1` (centres unmarked) [Example 99] registered a chromatographic logP under setting [1] of 2.18.
On the same count and under the same terms, in the case of `CC(C)c1ccc(C2CCC(=O)N2)cc1` (centres unmarked) [Example V-5] it was 2.13.
As for `Fc1cccc(F)c1C1=NC(c2ccccc2)CC1` (centres unmarked) [Example 93], under setting [1], the chromatographic logP was 1.75.
In turn, `O=C1CCC(c2ccc(-c3ccc(OC(F)(F)F)cc3)cc2)N1` (centres unmarked) [Example V-27] came in with a chromatographic logP under setting [1] of 2.96.
For `Cc1ccc(C2CCC(c3ccccc3Cl)=N2)cc1` (centres unmarked) [Example 74], the chromatographic logP was found to be 1.96 under setting [1] and 4.04 under setting [2].
`Fc1ccc(F)c(C2=NC(c3ccc(-c4ccc(SC(F)(F)F)cc4)cc3)CC2)c1F` (centres unmarked) [Example 115] gave a chromatographic logP under setting [1] of 5.46.
As for `Fc1ccccc1C1=NC(c2ccc(-c3ccc(SC(F)(F)F)cc3)cc2)CC1` (centres unmarked) [Example 17], the chromatographic logP is 3.45 under setting [1] and 5.84 under setting [2].
Regarding `Fc1ccc(C2CCC(c3ccc(Cl)cc3)=N2)cc1` (centres unmarked) [Example 34], the chromatographic logP by setting is: under setting [1], 1.63; under setting [2], 3.99.
As for `FC(F)(F)Oc1ccc(C2=NC(c3cccc(Cl)c3)CC2)cc1` (centres unmarked) [Example 105], the chromatographic logP under setting [1] was determined as 4.87.
Regarding `Cc1ccc(C2CCC(c3ccccc3Br)=N2)cc1Cl` (centres unmarked) [Example 62], the chromatographic logP reads like this: under setting [1], 3.36; under setting [2], 4.69.
On to `Fc1ccccc1C1=NC(c2ccc(C3CCCCC3)cc2)CC1` (centres unmarked) [Example 79], for which the chromatographic logP was determined as 2.86 under setting [1] and 5.95 under setting [2].
In turn, `CC(C)c1ccc(C2CCC(c3ccccc3F)=N2)cc1` (centres unmarked) [Example 22] had a chromatographic logP under setting [1] of 2.09.
For `FC(F)(F)Oc1ccc(-c2ccc(C3CCC(c4ccc(Cl)cc4Cl)=N3)cc2)cc1` (centres unmarked) [Example 8], under setting [1], the chromatographic logP worked out at 5.69.
`Fc1cccc(F)c1C1=NC(c2ccc(OCc3ccc(OC(F)(F)F)cc3)cc2)CC1` (centres unmarked) [Example 109] showed a chromatographic logP under setting [1] of 3.61.
`Fc1ccc(C2CCC(c3ccccc3Br)=N2)cc1F` (centres unmarked) [Example 56] displayed a chromatographic logP under setting [1] of 3.01 and a chromatographic logP under setting [2] of 3.89.
Take `CC(C)(C)c1ccc(C2CCC(c3ccccc3F)=N2)cc1` (centres unmarked) [Example 24]: the chromatographic logP is, setting by setting: under setting [1], 2.33; under setting [2], 5.06.
As for `Cc1ccc(C2CCC(=O)N2C(=O)OC(C)(C)C)cc1` (centres unmarked) [III-20], the chromatographic logP under setting [1] amounted to 2.9.
Turning to `CC(C)(C)OC(=O)N1C(=O)C(C(=O)c2ccccc2Br)CC1c1ccc(OC(F)(F)F)cc1` (centres unmarked) [II-1, tert-butyl 3-(2-bromobenzoyl)-2-oxo-5-[4-(trifluoromethoxy)phenyl]-1-pyrrolidinecarboxylate], the chromatographic logP under setting [2] worked out at 3.35.
Regarding `Clc1ccccc1C1=NC(c2ccc(C3CCCCC3)cc2)CC1` (centres unmarked) [Example 67], the chromatographic logP under setting [2] was 6.04.
In the case of `Clc1ccc(C2CCC(c3ccccc3Cl)=N2)cc1` (centres unmarked) [Example 82], the chromatographic logP reads like this: under setting [1], 2.6; under setting [2], 4.23.
Take `O=C1CCC(c2ccc(-c3ccc(OCc4ccc(Cl)cc4)cc3)cc2)N1` (centres unmarked) [Example V-22]: the chromatographic logP under setting [1] turned out to be 3.62.
With `CC(C)(C)OC(=O)N1C(=O)CCC1c1ccc(C(C)(C)C)cc1` (centres unmarked) [III-4], the chromatographic logP under setting [1] is 3.92.
With `CCOc1cc(C(C)(C)C)ccc1C1CCC(=O)N1` (centres unmarked) [Example V-3, 5-(4-tert-butyl-2-ethoxyphenyl)-2-pyrrolidinone], under setting [1], the chromatographic logP was found to be 2.84.
Consider `CC(C)(C)c1ccc(C2CCC(c3ccccc3Br)=N2)cc1` (centres unmarked) [Example 26], for which the chromatographic logP reads like this: under setting [1], 3.36; under setting [2], 5.21.
Regarding `FC(F)(F)c1ccccc1C1=NC(c2ccc(Br)cc2)CC1` (centres unmarked) [Example 2], the chromatographic logP under setting [1] was 3.9.
As to `O=C1CCC(c2ccc(-c3ccc(SC(F)(F)F)cc3)cc2)N1` (single isomer, unassigned; isomer 5) [V-2 para isomer, 5-{4′-[(trifluoromethyl)thio]-1,1′-biphenyl-4-yl}-2-pyrrolidinone], the chromatographic logP under setting [1] turned out to be 3.24.
Same read-out and setting: next, `Cc1ccc(C2CCC(=O)N2)cc1` (centres unmarked) [Example V-14]: 1.52; `CC(C)(C)c1ccc(C2CCC(c3ccccc3Cl)=N2)cc1` (centres unmarked) [Example 20]: 3.05.
The compound `CC(=O)c1ccc(C2CCC(c3ccccc3Br)=N2)cc1` (centres unmarked) [Example 84] returned a chromatographic logP under setting [1] of 2.14 and a chromatographic logP under setting [2] of 3.09.
Compound `Fc1cccc(F)c1C1=NC(c2ccc(OCc3ccc(Cl)cc3)cc2)CC1` (centres unmarked) [Example 107] had a chromatographic logP under setting [1] of 3.26.
